IC50 and EC50 data for 16 compounds are collected here from patent US8063049B2, “Inhibitors of MEK” (Ardea Biosciences, Inc., priority 2007, dated 2011).

Structures are written as SMILES.

As usually defined, the IC50 is the concentration needed to halve the response being measured. A lower IC50 goes with greater potency. In general, EC50 refers to the concentration at which the effect is half-maximal. A high value points to weaker potency.

For experiment [1], the target named is T1, Human GST-MEK1CA (constitutively active MEK1, Ser218Asp and Ser222Asp) (Homo sapiens, UniProt Q02750, S218D/S222D).
T1 construct: GST; made in house; host or cells: Escherichia coli
Kind of experiment: MEK1 enzymatic activity assay (33P incorporation, MEK1CA/ERK2/MBP). In kind it is biochemical. Particulars: MEK1CA with ERK2, MBP and [γ33P]ATP; 30 min preincubation, 60 min reaction. From the text: Materials and preparation of reagents: Human GST-MEK1 and the constitutively […] active allele GST-MEK1^CA (harboring the mutations Ser218Asp and Ser222Asp) can be subcloned into the yeast expression vector pGEM4Z (Promega, Madison, Wis.) from the wild type human MEK1 cDNA. GST-MEK1CA was expressed in Escherichia coli and can be partially purified using Glutathione Sepharose 4B affinity resin (Amersham Pharmacia Biotech, Piscataway, N.J.). The ERK2 allele can be subcloned from MAPK2/Erk2 cDNA (wild type) in […] pUSEamp (Upstate Biotechnology, Inc., Waltham, Mass.) into the vector pET21a (Novagen, Madison, Wis.) resulting in an N-terminal histidine-tagged mouse ERK2 allele. ERK2 can be expressed and purified to homogeneity [Zhang, 1993 #33]. Myelin basic protein (MBP) can be purchased from Gibco BRL (Rockville, Md.). EasyTides adenosine 5′-triphosphate (ATP) ([γ-33P]) (NEN Perkin Elmer, Wellesley, Mass.) is the source of radiolabel for all kinase reactions. Activated Raf-1 (truncated) and activated MAPKinase 2/ERK2 can be purchased from Upstate, Inc. (Lake Placid, N.Y.). 4-20% Criterion Precast gels can be purchased from Bio-Rad (Hercules, Calif.).
Determination of enzymatic activity: Compounds are diluted from dimethylsulfoxide (DMSO) stocks into 1×HMNDE (20 mM HEPES pH 7.2, 1 mM MgCl2, 100 mM NaCl, 1.25 mM DTT, 0.2 mM EDTA). A typical 25-microliter assay contained 0.002 nanomoles MEK1^CA, 0.02 nanomoles ERK2, 0.25 nanomoles MBP, 0.25 nanomoles unlabeled ATP, and 0.1 μCi [γ33P] ATP. The screening assay essentially comprises four additions. Five μl of diluted compound are dispensed to 96-well assay plates. Ten μl of 2.5× enzyme cocktail (MEK1^CA and ERK2 only) are then added to each well followed by a preincubation for 30 minutes at ambient temperature. Ten μl of 2.5× substrate cocktail (labeled and unlabeled ATP plus MBP) are then added, followed by incubation for 60 minutes at ambient temperature. Finally, 100 μl of 10% trichloroacetic acid (TCA) are added and incubated for 30 minutes at room temperature to halt the reaction and precipitate radiolabeled protein products. Reaction products are harvested on glass fiber 96 well filter plates prewetted with water and 1% pyrophosphate. The filter plate is then washed 5 times with water. Water is displaced by absolute ethanol and the plate is allowed to air dry for 30 minutes at room temperature. A back seal is applied manually and 40 μl of scintillation cocktail are dispensed to each well. A top seal is applied and the plate is counted in the TopCount for two seconds per well.

The subject of experiment [2] is phosphorylated ERK in MDA-MB-231 breast cancer cells. The experiment can be described thus: Western blotting for phosphorylated ERK in EGF-stimulated MDA-MB-231 cells. In kind it is cell-based. As to conditions: Homo sapiens, 30 min compound, 100 ng/ml EGF for 5 min, phospho-ERK Western blot. On the procedure:
Effects of compounds in the cell can be determined by Western blotting for phosphorylated ERK. MDA-MB-231 breast cancer cells are plated in a 48 well plate at 20,000 cells per well and are grown in a 37° humidified CO2 incubator. The following day, the growth media (DMEM+10% fetal bovine serum) is removed and replaced with starve media (DMEM+0.1% fetal bovine serum). Cells are incubated in the starve media for sixteen hours and then treated with a range of compound concentrations for thirty minutes.
After incubation with compound, cells are stimulated with 100 ng/ml EGF for five minutes. The cells are then lysed and analyzed by Western blot using a monoclonal antibody raised to phosphorylated ERK. The signal is amplified using a secondary antibody conjugated to a near-IR dye and detected on a Licor Odyssey scanner.

T1 sequence (Q02750 whole entry S218D/S222D): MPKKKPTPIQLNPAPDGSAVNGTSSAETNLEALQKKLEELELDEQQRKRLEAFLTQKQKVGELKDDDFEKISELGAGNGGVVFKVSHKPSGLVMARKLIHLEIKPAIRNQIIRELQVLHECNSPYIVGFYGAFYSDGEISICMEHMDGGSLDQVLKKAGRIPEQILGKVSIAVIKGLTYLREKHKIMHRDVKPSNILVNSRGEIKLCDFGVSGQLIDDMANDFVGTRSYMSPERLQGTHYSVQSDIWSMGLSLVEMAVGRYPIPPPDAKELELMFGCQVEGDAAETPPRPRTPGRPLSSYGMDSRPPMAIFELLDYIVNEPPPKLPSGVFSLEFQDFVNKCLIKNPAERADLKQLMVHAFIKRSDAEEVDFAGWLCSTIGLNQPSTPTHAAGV

In experiment [1], `Cn1cnc2c(F)c(Nc3ccc(I)cc3F)c(NS(=O)(=O)C3(CCO)CC3)cc21` [Example 2, N-(4-fluoro-5-(2-fluoro-4-iodophenylamino)-1-methyl-1H-benzo[d]imidazol-6-yl)-1-(2-hydroxyethyl)cyclopropane-1-sulfonamide] came in with an IC50 of 10 to 100 nM. In experiment [2], this compound showed an EC50 of 1 to 10 nM.
For `Cc1c(Nc2ccc(Br)cc2Cl)c(NS(=O)(=O)C2(CCO)CC2)cn2ccnc12` [Example 18, N-(7-(4-bromo-2-chlorophenylamino)-8-methylimidazo[1,2-a]pyridin-6-yl)-1-(2-hydroxyethyl)cyclopropane-1-sulfonamide], in that order: 1000 to 10000 nM and 10 to 100 nM.
In experiment [1], `Cc1ncnc2c(F)c(Nc3ccc(I)cc3F)c(NS(=O)(=O)C3CC3)cc12` [Example 34, N-(7-(2-fluoro-4-iodophenylamino)-8-fluoro-4-methylquinazolin-6-yl)cyclopropanesulfonamide] yielded an IC50 of 10000 to 50000 nM. In addition, the EC50 in experiment [2] fell in the range of 100 to 1000 nM.
As to `Cc1onc2c(F)c(Nc3ccc(I)cc3F)c(NS(=O)(=O)C3CC3)cc12` [Example 7, N-(7-fluoro-6-(2-fluoro-4-iodophenylamino)-3-methylbenzo[c]isoxazol-5-yl)cyclopropanesulfonamide], in experiment [1], the IC50 lay within 10 to 100 nM. In addition, the EC50 in experiment [2] is 10 to 100 nM.
Turning to `O=S(=O)(Nc1cn2ccnc2c(Cl)c1Nc1ccc(Br)cc1Cl)C1(CCO)CC1` [Example 10, N-(7-(4-bromo-2-chlorophenylamino)-8-chloroimidazo[1,2-a]pyridin-6-yl)-1-(2-hydroxyethyl)cyclopropane-1-sulfonamide], the IC50 in experiment [1] fell in the range of 100 to 1000 nM. In addition, in experiment [2], the EC50 was in the range of 10 to 100 nM.
For `Cc1noc2c(F)c(Nc3ccc(I)cc3F)c(NS(=O)(=O)C3(CC(O)CO)CC3)cc12` (centres unmarked) [Example 5, 1-(2,3-dihydroxypropyl)-N-(7-fluoro-6-(2-fluoro-4-iodophenylamino)-3-methylbenzo[d]isoxazol-5-yl)cyclopropane-1-sulfonamide], in that order: 1 to 10 nM and 0.1 to 1 nM.
`O=S(=O)(Nc1cn2ccnc2c(Cl)c1Nc1ccc(I)cc1F)C1(CCO)CC1` [Example 12, N-(8-chloro-7-(2-fluoro-4-iodophenylamino)imidazo[1,2-a]pyridin-6-yl)-1-(2-hydroxyethyl)cyclopropane-1-sulfonamide] registered an IC50 in experiment [1] of 10 to 100 nM. This compound also had an EC50 in experiment [2] of 1 to 10 nM.
Compound `Cc1c2cc(NS(=O)(=O)C3CC3)c(Nc3ccc(I)cc3F)c(F)c2nn1C` [Example 29, N-(6-(2-fluoro-4-iodophenylamino)-7-fluoro-2,3-dimethyl-2H-indazol-5-yl)cyclopropanesulfonamide] yielded an IC50 in experiment [1] of 1000 to 10000 nM. In experiment [2], this compound returned an EC50 of 1 to 10 nM.
As for `Cc1noc2c(F)c(Nc3ccc(I)cc3F)c(NS(=O)(=O)C3(CCO)CC3)cc12` [Example 4, 1-(2-hydroxyethyl)-N-(7-fluoro-6-(2-fluoro-4-iodophenylamino)-3-methylbenzo[d]isoxazol-5-yl)cyclopropane-1-sulfonamide], the IC50 in experiment [1] lay in the range of 10 to 100 nM. This compound showed an EC50 in experiment [2] of 1 to 10 nM.
In experiment [1], `O=S(=O)(Nc1cn2ccnc2c(Cl)c1Nc1ccc(Br)cc1Cl)C1CC1` [Example 9, N-(7-(4-bromo-2-chlorophenylamino)-8-chloroimidazo[1,2-a]pyridin-6-yl)cyclopropanesulfonamide] yielded an IC50 of 100 to 1000 nM. In experiment [2], the EC50 lay within 10 to 100 nM.
`Cc1noc2c(F)c(Nc3ccc(Br)cc3Cl)c(NS(=O)(=O)C3CC3)cc12` [Example 6, N-(7-fluoro-6-(4-bromo-2-chlorophenylamino)-3-methylbenzo[d]isoxazol-5-yl)cyclopropanesulfonamide] yielded an IC50 in experiment [1] of 100 to 1000 nM. Moreover, in experiment [2], the EC50 fell in the range of 1 to 10 nM.
On to `Cc1noc2c(F)c(Nc3ccc(I)cc3F)c(NS(=O)(=O)C3CC3)cc12` [Example 3, N-(7-fluoro-6-(2-fluoro-4-iodophenylamino)-3-methylbenzo[d]isoxazol-5-yl)cyclopropanesulfonamide], for which the IC50 in experiment [1] lay in the range of 10 to 100 nM. In experiment [2], this compound displayed an EC50 of 1 to 10 nM.
Consider `Cc1c(Nc2ccc(I)cc2F)c(NS(=O)(=O)C2(CC(O)CO)CC2)cn2ccnc12` (centres unmarked) [Example 16, 1-(2,3-dihydroxypropyl)-N-(7-(2-fluoro-4-iodophenylamino)-8-methylimidazo[1,2-a]pyridin-6-yl)cyclopropane-1-sulfonamide], for which, in experiment [1], the IC50 was 10 to 100 nM. The compound further gave an EC50 in experiment [2] of 10 to 100 nM.
`Cc1c(Nc2ccc(Br)cc2Cl)c(NS(=O)(=O)C2CC2)cn2ccnc12` [Example 17, N-(7-(4-bromo-2-chlorophenylamino)-8-methylimidazo[1,2-a]pyridin-6-yl)cyclopropanesulfonamide] returned an IC50 in experiment [1] of 100 to 1000 nM. Also, the EC50 in experiment [2] lay within 10 to 100 nM.
Consider `Cc1nn(C)c2c(F)c(Nc3ccc(I)cc3F)c(NS(=O)(=O)C3CC3)cc12` [Example 30, N-(6-(2-fluoro-4-iodophenylamino)-7-fluoro-1,3-dimethyl-1H-indazol-5-yl)cyclopropanesulfonamide], for which the half-inhibitory concentration (IC50) in experiment [1] lay within 10000 to 50000 nM. The EC50 in experiment [2] fell in the range of 100 to 1000 nM.
As to `Cc1c(Nc2ccc(I)cc2F)c(NS(=O)(=O)C2CC2)cn2ccnc12` [Example 14, N-(7-(2-fluoro-4-iodophenylamino)-8-methylimidazo[1,2-a]pyridin-6-yl)cyclopropanesulfonamide], the IC50 in experiment [1] lay in the range of 10 to 100 nM. Further, the EC50 in experiment [2] fell in the range of 0.1 to 1 nM.
